Patent US20240182945A1, “PRODUCTS FOR REGULATION OF EUKARYOTIC AND MICROBIAL CELLS GROWTH” (priority 2021, published 2024)

Key:
Assay type in all cases: cell-based
E. coli = assay: Growth of microbial modulator alone on antibiotic-supplemented Columbia agar; conditions: Bacterial set #4; Amikacin (1 μg/mL); Columbia agar with erythrocytes 5%, 24 h at 37 C
[1] = test system: MIX—PP +BM (P. aeruginosa with microbial modulators); assay: Growth of mix PP + MM (original sputum) on antibiotic-supplemented Columbia agar; conditions: Bacterial set #4; Amikacin (1 μg/mL); Columbia agar with erythrocytes 5%, 24 h at 37 C
[2] = test system: bacteria of sputum from patients with lung diseases; assay: Sputum plated on 24-well plates with antibiotics at Cmax or C0-4 h, Algorithm #1 or #2; further: key: '+'—presence of bacterial growth, antibiotic ineffective; '−'—absence of bacterial growth, antibiotic effective
Protocol: Pathological material (sputum) from patients with lung diseases was plated into wells of 24-well plates filled with a nutrient medium supplemented with erythrocytes 5%, to which antibiotics were added taken at different concentrations.
Group #1—antibiotics were taken at concentrations close to a maximum (peak) concentration achievable at the site of infection Cmax
Algorithm #1. Lab technician, analyzed the appearance of bacterial growth by comparing the signs of bacterial growth in each well supplemented with antibiotic(s) at certain timepoint, with the signs of bacterial growth in the same well at previous time point(s).
Algorithm #2. Lab technician analyzed the appearance of bacterial growth by comparing the signs of bacterial growth in each well supplemented with antibiotic(s) with bacterial growth in antibiotic-free control

[3] = test system: bacteria of sputum from patients with lung diseases; assay: Standard antibiotic susceptibility study using the microbroth dilution method (Algorithm #3); further: key: '+'—presence of bacterial growth, antibiotic ineffective; '−'—absence of bacterial growth, antibiotic effective
Excerpt: Algorithm #3—Standard antibiotic susceptibility study using the microbroth dilution method.

P. aeruginosa = assay: Growth of primary pathogen alone on antibiotic-supplemented Columbia agar; conditions: Bacterial set #4; Amikacin (1 μg/mL); Columbia agar with erythrocytes 5%, 24 h at 37 C
Protocol: Four sputum samples from patients with lung infections were used. Pure bacterial culture of each microorganisms was obtained by routine microbiological methods.
In this case this antibiotic at MIC of 16 ug/mL was used in the following studies. PP alone, or Microbial Modulators (MM) alone or the original sputum were plated on the wells of 24 well plate filled with nutrient Columbia agar supplemented with erythrocytes 5% and supplemented with antibiotics taken as MIC determined against PP, but not more than 16 μg/mL and incubated 24 h at 37 C.

S. haemolyticus = assay: Growth of microbial modulator alone on antibiotic-supplemented Columbia agar; conditions: Bacterial set #4; Amikacin (1 μg/mL); Columbia agar with erythrocytes 5%, 24 h at 37 C

In the case of `NCC[C@H](O)C(=O)N[C@@H]1C[C@H](N)[C@@H](O[C@H]2O[C@H](CN)[C@@H](O)[C@H](O)[C@H]2O)[C@H](O)[C@H]1O[C@H]1O[C@H](CO)[C@@H](O)[C@H](N)[C@H]1O` [Amikacin], the “microbial growth, EC (BM alone)” value (E. coli) is reported as “−”, the “Presence of PP in Mix (PP + MM)” value [1] is reported as “−” and the ATB efficacy ([2]; Algorithm #1, antibiotic at C0-4 h) is reported as “−”. For the same compound, the ATB efficacy ([2]; Algorithm #1, antibiotic at Cmax) was “−”, the ATB efficacy ([2]; Algorithm #2, antibiotic at C0-4 h) was “−” and the ATB efficacy ([2]; Algorithm #2, antibiotic at Cmax) was “−”. For the same compound, the ATB efficacy [3] was “−”, the “microbial growth, PA (PP alone)” value (P. aeruginosa) was “+” and the “microbial growth, SH (BM alone)” value (S. haemolyticus) was “+”.
